In PMC11356571, “The Comparative Metabolism of a Novel Hepatocellular Carcinoma Therapeutic Agent, 2,3-Diamino-N-(4-(benzo[d]thiazol-2-yl)phenyl)propanamide, in Human and Animal Hepatocytes” (Metabolites, 2024):

Experiment: Metabolic stability in human hepatocytes
Assay type: in vitro ADME
Conditions: cryopreserved hepatocytes
Description: Cryopreserved hepatocytes were carefully thawed in a 37 °C water bath for approximately 1 min, and transferred to a tube containing pre-warmed thawing medium. The supernatants were removed and the pellets were resuspended in KHB at a final cell density of 1 × 10^6 cells/mL, based on hemocytometer counting using trypan blue exclusion. A ETN101 solution was prepared by dissolving ETN101 in water at 4 mM and diluted by KHB at the concentration of 4 μM of ETN101. Sixty microliters each of hepatocyte suspensions and 4 μM of ETN101 were added in a 96-well plate and incubated for 0, 5, 15, 30, and 45 min at 37 °C in a CO2 incubator. All incubations were conducted in triplicates. Reactions were terminated by the addition of 120 μL of ice-cold acetonitrile and followed by vortex mixing. After centrifugation at 13,000 rpm for 8 min at 4 °C, 5 μL of internal standard (IS, camptothecin in acetonitrile at 780 ng/mL) was added to 60 μL of supernatant. A 2 μL aliquot was injected into the LC-MS/MS system. The reliability of the analysis was confirmed by incorporating three different levels of quality control samples at the beginning and end of each analytical batch. The disappearance rate (k) of ETN101 was calculated by determined peak area ratio of ETN101 to IS over incubation period. Subsequently, half-life (t1/2), intrinsic clearance (Clint), and intrinsic hepatic clearance (Clint,hep) of ETN101 in human and animal hepatocytes were calculated using the following equation [34]: t1/2(min)=ln2/−k(elimination slope) ClintμL/min/10^6 cells=ln2/t1/2×μL incubation/hepatocytes (10^6 cells) Clint,hepmL/min/kg=Clint/1000×A×10^6 cells/g liver×B g liver/kg body weight […]
For the metabolic stability assay, an LC-MS/MS system was employed, consisting of an Agilent 1260 series HPLC system (Agilent Technologies Inc., Santa Clara, CA, USA) coupled to an API 4000 mass spectrometer (AB SCIEX, Concord, Vaughan, ON, Canada) equipped with a turbo electrospray interface. […] ETN101 and IS were detected using multiple reaction monitoring (MRM) mode under positive electrospray ionization (ESI). […]

Compound: NCC(N)C(=O)Nc1ccc(-c2nc3ccccc3s2)cc1 (stereo not drawn) [ETN101, 2,3-diamino-N-(4-(benzo[d]thiazol-2-yl)phenyl)propanamide]
- half-life at 2 µM (45 min incubation at 37 °C): 1.25 h
- hepatocyte CLint at 2 µM (45 min incubation at 37 °C): 18.5 µL/min/1e6 cells
- CLint scaled at 2 µM (scaled from Clint): 66.1 mL/min/kg
